Target: T1, human CXCR2 receptor (Homo sapiens, UniProt P25025)
T1 construct: purchased Biosignal Packard Inc; host or cells: CHO-K1 membranes
T1 sequence (P25025 1-360): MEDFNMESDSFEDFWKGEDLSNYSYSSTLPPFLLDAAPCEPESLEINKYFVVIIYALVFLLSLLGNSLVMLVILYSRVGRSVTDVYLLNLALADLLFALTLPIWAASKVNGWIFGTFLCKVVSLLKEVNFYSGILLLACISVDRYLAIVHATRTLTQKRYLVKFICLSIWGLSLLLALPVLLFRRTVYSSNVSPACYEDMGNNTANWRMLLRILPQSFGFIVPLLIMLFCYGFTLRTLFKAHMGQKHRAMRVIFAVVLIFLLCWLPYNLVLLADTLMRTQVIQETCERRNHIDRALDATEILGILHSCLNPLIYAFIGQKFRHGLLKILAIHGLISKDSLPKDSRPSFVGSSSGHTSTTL
Assay: [35S]-GTPγS binding assay for human CXCR2 receptor using SPA technology
Assay type: biochemical
Details: CHO-K1 membranes expressing human CXCR2 receptors; 100 nM IL-8 stimulated [35S]GTPγS binding; read-out: IC50 values in the [35S]-GPTγS binding assay
From the text: [^35S]-GTPγS Binding Assay for Human CXCR2 Receptor Using SPA Technology
[^35S]-GTPγS (with specific activity 1082 Ci/mmol) and wheat germ agglutinin poly vinyl toluene scintillation proximity beads are purchased from Amersham Pharmacia Biotech. The Chinese hamster ovary cell (CHO-K1) membranes expressing human CXCR2 receptors are purchased from Biosignal Packard Inc. All other chemicals are of analytical grade. White non-binding surface 96 well Optiplate™ microplates are obtained from Packard. Recombinant human IL-8 is synthesised, cloned and expressed in Escherichia coli as described previously (Lindley I, et al., Proc. Natl. Acad. Sci., 1988, 85(23):9199). The assay is performed in duplicate in 96 well Optiplate™ microplate in a final volume of 250 μl per well. Compounds are diluted in DMSO (0.5% final concentration) and incubated in 20 mM HEPES buffer pH 7.4 containing 10 mM MgCl2, 100 mM NaCl, 1 mM EDTA plus 100 nM IL-8, 50 μM GDP and 500 pM [^35S]GTPγS per well. SPA beads (1 mg/well final concentration) were pre-mixed with the membranes (10 μg/well final concentration) in assay buffer: 20 mM HEPES buffer pH 7.4 containing 10 mM MgCl2, 100 mM NaCl, 1 mM EDTA. The bead membrane mixture is added to each well, plates are sealed and incubated at room temperature for 60 minutes. The plate is centrifuged and read on Packard TopCount™ scintillation counter, program [^35S dpm] for 1 min/well. Data are expressed as the % response to 100 nM IL-8 minus basal.

SMILES	IC50
Cc1cc2nc(COc3ccccc3Cl)cc(O)n2n1 [Example 10, 5-(2-Chloro-phenoxymethyl)-2-methyl-pyrazolo[1,5-a]pyrimidin-7-ol]	4.89 µM
Oc1cc(COc2c(F)cccc2F)nc2cc(-c3ccco3)nn12 [Example 14, 5-(2,6-Difluoro-phenoxymethyl)-2-furan-2-yl-pyrazolo[1,5-a]pyrimidin-7-ol]	3.83 µM
Oc1cc(COc2cccc(F)c2F)nc2cc(-c3ccco3)nn12 [Example 22, 5-(2,3-Difluoro-phenoxymethyl)-2-furan-2-yl-pyrazolo[1,5-a]pyrimidin-7-ol]	1.74 µM
Oc1cc(COc2ccccc2Cl)nc2cc(-c3ccco3)nn12 [Example 23, 5-(2-Chloro-phenoxymethyl)-2-furan-2-yl-pyrazolo[1,5-a]pyrimidin-7-ol]	1.77 µM
Oc1cc(CCc2cccc(F)c2F)nc2cc(-c3ccco3)nn12 [Example 7, 5-[2-(2,3-Difluoro-phenyl)-ethyl]-2-furan-2-yl-pyrazolo[1,5-a]pyrimidin-7-ol]	0.22 µM
Oc1cc(CCc2ccccc2Cl)nc2cc(Cc3ccccc3)nn12 [Example 4, 2-Benzyl-5-[2-(2-chloro-phenyl)-ethyl]-pyrazolo[1,5-a]pyrimidin-7-ol]	0.66 µM
Cc1cc2nc(CCc3ccccc3F)cc(O)n2n1 [Example 1, 5-[2-(2-Fluoro-phenyl)-ethyl]-2-methyl-pyrazolo[1,5-a]pyrimidin-7-ol]	2.97 µM
Oc1cc(COc2cccnc2Cl)nc2cc(-c3ccco3)nn12 [Example 17, 5-(2-Chloro-pyridin-3-yloxymethyl)-2-furan-2-yl-pyrazolo[1,5-a]pyrimidin-7-ol]	0.99 µM

— patent US20110009429A1, “HETEROCYCLIC COMPOUNDS AS INHIBITORS OF CXCR2” (priority 2008, published 2011)
